ChEMBL document CHEMBL4334512, “Rationally Designed, Conformationally Constrained Inverse Agonists of RORγt-Identification of a Potent, Selective Series with Biologic-Like in Vivo Efficacy” (J Med Chem, 2019)

Columns and labels:
[1] = Clearance in dog at 1 mg/kg, iv; format: ADME, organism-based, Canis lupus familiaris; conditions: in vivo
Cytochrome P450 1A2 = target: T1, Cytochrome P450 1A2 (Homo sapiens, UniProt P05177); test: Inhibition of recombinant CYP1A2 (unknown origin); format: ADME
T1 sequence (P05177 whole entry): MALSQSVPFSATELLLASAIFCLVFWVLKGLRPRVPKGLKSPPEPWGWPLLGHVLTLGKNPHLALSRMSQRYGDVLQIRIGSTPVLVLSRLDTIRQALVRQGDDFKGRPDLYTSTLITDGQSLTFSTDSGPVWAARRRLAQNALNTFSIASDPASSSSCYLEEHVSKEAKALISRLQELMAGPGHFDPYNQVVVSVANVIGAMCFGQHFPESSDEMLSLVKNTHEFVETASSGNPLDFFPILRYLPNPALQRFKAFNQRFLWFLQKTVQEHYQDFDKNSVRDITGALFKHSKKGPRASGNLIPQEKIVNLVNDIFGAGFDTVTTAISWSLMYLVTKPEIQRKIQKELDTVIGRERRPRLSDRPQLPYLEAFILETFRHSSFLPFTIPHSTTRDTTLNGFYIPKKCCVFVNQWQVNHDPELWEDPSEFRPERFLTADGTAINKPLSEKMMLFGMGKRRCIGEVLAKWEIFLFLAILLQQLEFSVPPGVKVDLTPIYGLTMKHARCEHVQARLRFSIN

[2] = Half life in dog at 1 mg/kg, iv; format: ADME, organism-based, Canis lupus familiaris; conditions: in vivo
Cytochrome P450 2C8 = target: T2, Cytochrome P450 2C8 (Homo sapiens, UniProt P10632); test: Inhibition of recombinant CYP2C8 (unknown origin); format: ADME
T2 sequence (P10632 whole entry): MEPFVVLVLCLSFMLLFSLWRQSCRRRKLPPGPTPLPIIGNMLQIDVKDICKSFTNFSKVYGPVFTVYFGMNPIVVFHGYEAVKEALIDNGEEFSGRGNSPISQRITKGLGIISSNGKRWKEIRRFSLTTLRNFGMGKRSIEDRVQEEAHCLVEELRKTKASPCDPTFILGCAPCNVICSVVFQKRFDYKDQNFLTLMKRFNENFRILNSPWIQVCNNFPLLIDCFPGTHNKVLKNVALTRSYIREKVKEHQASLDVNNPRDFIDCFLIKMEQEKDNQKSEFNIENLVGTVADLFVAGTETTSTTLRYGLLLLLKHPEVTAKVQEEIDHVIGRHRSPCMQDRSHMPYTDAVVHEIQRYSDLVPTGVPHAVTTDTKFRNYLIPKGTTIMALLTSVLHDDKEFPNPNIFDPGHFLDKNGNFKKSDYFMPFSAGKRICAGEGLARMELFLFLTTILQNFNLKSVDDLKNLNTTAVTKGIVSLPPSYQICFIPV

[3] = Cmax in mouse at 4 mg/kg, po; format: ADME, organism-based; design: dose 4 mg/kg, route oral; conditions: in vivo
[4] = Cmax in rat at 4 mg/kg, po; format: ADME, organism-based; design: dose 4 mg/kg, route oral; conditions: in vivo
[5] = Unbound fraction in rat serum; format: ADME, cell-free
[6] = Volume of distribution at steady state in mouse at 2 mg/kg, iv; format: ADME, organism-based; conditions: in vivo, read-out: Vdss
Mus musculus = test: Suppression of IL-22 RNA expression in skin region of mouse model of IL-23 induced acanthosis model of psoriasis at 3 to 30 mg/kg, po BID for 10 days measured every other day; format: functional
[7] = Half life in mouse liver microsomes; format: ADME, Microsome
[8] = target: T3, Nuclear receptor ROR-beta (Homo sapiens, UniProt Q92753); test: Activity at RORbeta (unknown origin)
T3 sequence (Q92753 whole entry): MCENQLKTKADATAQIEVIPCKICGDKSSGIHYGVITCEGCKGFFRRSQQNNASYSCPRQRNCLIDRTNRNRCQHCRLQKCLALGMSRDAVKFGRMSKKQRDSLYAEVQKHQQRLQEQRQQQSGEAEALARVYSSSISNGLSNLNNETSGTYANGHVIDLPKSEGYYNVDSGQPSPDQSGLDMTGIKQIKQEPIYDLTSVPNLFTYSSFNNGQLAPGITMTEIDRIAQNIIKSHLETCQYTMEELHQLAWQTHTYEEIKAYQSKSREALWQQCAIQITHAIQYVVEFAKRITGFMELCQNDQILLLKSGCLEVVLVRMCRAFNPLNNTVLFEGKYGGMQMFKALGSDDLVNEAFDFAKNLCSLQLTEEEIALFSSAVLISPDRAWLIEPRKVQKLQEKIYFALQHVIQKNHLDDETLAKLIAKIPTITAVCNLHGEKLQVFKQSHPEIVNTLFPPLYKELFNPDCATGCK

clearance [1]: 0.35 mL/min/kg | IC50 (Cytochrome P450 1A2): > 20 µM | half-life [2]: 87 h | IC50 (Cytochrome P450 2C8): 15 µM | Cmax [3]: 2200 nM | Cmax [4]: 1100 nM | fraction unbound [5]: 0.011 | Vd [6]: 2.7 L/kg | half-life [7]: > 2 h | IC50 [8]: > 10 µM
SMILES: O=C(N1CC[C@@]2(S(=O)(=O)c3ccc(F)cc3)c3ccc(C(F)(C(F)(F)F)C(F)(F)F)cc3CC[C@@H]12)C1(O)CCS(=O)(=O)CC1
Activity (Mus musculus): Dose-dependent effect | ED50 (Mus musculus; 240 h): 3 mg/kg
